Results reported in PubChem BioAssay AID179 (DTP/NCI, 2004).
The source made the active and inactive calls.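 The calls were made as follows: active = compounds giving half or more protection of infected cells from virus-caused growth loss, again on retest; inactive = the rest.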

Tested on: CEM cells HIV-1 protection, formazan growth assay
Assay: NCI AIDS Antiviral Assay
Conditions: for IC50: measured here: growth of uninfected CEM cells
In short: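 Category rules: moderately active means at least 50% protection on retest, and confirmed active means 100% protection reproducibly. The underlying data came from a formazan growth assay in HIV-1-infected CEM cells.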

Row | Structure (SMILES) | EC50 [µM] | IC50 [µM] | outcome
1 | CC[C@@]1(O)C(=O)OCc2c1cc1n(c2=O)Cc2cc3c(OC)cccc3nc2-1 | > 0.1 | 0.0141 | –
2 | Cc1nn(-c2ccccn2)c2ncnc(N)c12 | > 200 | 162 | –
3 | C[C@H](NC(=O)c1ccccc1SC(=O)CCCC[n+]1ccccc1)C(N)=O | 0.933 | > 100 | –
4 | CCOP(=O)(OCC)C(C(=O)OC)C(=O)C(=O)Nc1cccc(O)c1 (configuration not stated) | > 676 | > 676 | –
5 | CC(OC1C(N)C(O)OC(CO)C1O)C(=O)O (configuration not stated) | – | – | inactive
6 | Cc1ccc2c(c1)CC1(Cc3cccc(C)c3C1=O)C2=O (configuration not stated) | > 200 | > 200 | –
7 | CC1(C)/C(=N\NC(N)=O)C2CCC1C2 (configuration not stated) | > 200 | > 200 | –
8 | CCCCc1c2c(nc3c1CCc1cc4c(nc1-3)-c1nc3c(c(CCCC)c1CC4)CCC/C3=C\c1ccccc1)/C(=C/c1ccccc1)CCC2 | > 5.5 | > 5.5 | –
9 | O=C1/C(=C/c2ccccc2)CCCC1CN1CCCCC1 (configuration not stated) | > 200 | 0.676 | –
10 | COc1ccc(/C=C2/C(=O)N(C(=O)c3ccc(Cl)cc3)N=C2C)cc1OC | > 35.5 | > 35.5 | –
11 | O=c1cc(CC(O)(C(F)(F)Cl)C(F)(F)Cl)[nH]n1-c1ccccc1 | > 200 | 117 | –
12 | Cc1cc(CC(O)(C(F)(F)F)C(F)(F)F)cc(CC(O)(C(F)(F)F)C(F)(F)F)n1 | – | – | inactive
13 | O=[N+]([O-])c1ccc(O)c(/C=N\NC(=S)Nc2ccc(F)cc2)c1 | > 77.6 | > 77.6 | –
14 | CC1=NN(C(=O)c2ccccc2Br)C(=O)C1N=Nc1ccccc1C(=O)O (configuration not stated) | – | – | inactive
15 | OCC1OC(Oc2cc(O)cc(CCc3ccc(O)c(O)c3)c2)C(O)C(O)C1O (configuration not stated) | > 617 | 41.7 | –
16 | O=C(O)CN1CCN(CC(=O)O)CCN(CC(=O)O)CC1 | > 100 | 1.82 | –
17 | CCc1ccccc1NC(=O)CC1NC(=O)CS1 (configuration not stated) | > 339 | 214 | –
18 | Nc1ncnc2nc(C3OC(CO)C(O)C3O)[nH]c12 (configuration not stated) | > 70.8 | > 70.8 | –
19 | Cc1cc(NS(=O)(=O)c2ccc(NC(=O)c3ccc4nc5ccccc5c(Nc5ccc(S(N)(=O)=O)cc5)c4c3)cc2)no1 | > 81.3 | 29.5 | –
20 | Nc1nc(NCc2ccccc2)cc(NCc2ccccc2)n1 | > 20 | 2.75 | –
21 | CCOC(=O)C(C)NC(=O)N(C)C12CC3CC(CC(C3)C1)C2 (configuration not stated) | > 200 | 151 | –
22 | C=CCOC(=O)C1(C)C(=O)CCC1CC/C=C/C(C)=O (configuration not stated) | > 129 | 6.03 | –

Row | Structure (SMILES) | EC50 [µM] | IC50 [µM] | outcome
23 | O=CC1=CCCN(CCc2c[nH]c3ccccc23)C1 | > 195 | 10.2 | –
24 | O=C(C[n+]1ccccc1)N/N=C(\Cc1nc2ccc([N+](=O)[O-])cc2[nH]c1=O)C(=O)Nc1cc(Cl)c(Cl)cc1Cl | > 79.4 | 66.1 | –
25 | COc1ccc2c(c1)OC(OC)(c1ccccc1)C(O)(OC)C2=O (configuration not stated) | > 200 | 15.1 | –
26 | N#Cc1ccccc1C(Cl)(Cl)c1cnccn1 | > 490 | 64.6 | –
27 | Cc1cccc(C)c1NC(=O)C(=O)CC(=O)/C=C/c1ccccc1 | > 776 | 389 | –
28 | CC(=O)OC1(C#N)CC2OC1C1N=NN(C(=O)OC(C)(C)C)C21 (configuration not stated) | > 155 | 14.8 | –
29 | CC(=O)Nc1ccc2[nH]c(C(=O)N3CC(CCl)c4c3cc(N)c3ccccc43)cc2c1 (configuration not stated) | > 0.2 | 0.00933 | –
30 | Cc1ccc2cc(-c3ccccc3)c3ccc(C)nc3c2n1.Cc1ccc2cc(-c3ccccc3)c3ccc(C)nc3c2n1.O=C1OC(C(O)C[O-])C(O)=C1O.[Cu+] | > 25.1 | 1.29 | –
31 | O=[N+]([O-])c1ccc2c(c1)Sc1ccccc1N2CCCCCl | > 200 | 19.1 | –
32 | N#CCCN(CCC#N)c1ccc(/C=C(/NC(=O)Nc2ccccc2Cl)NC(=O)c2cc([N+](=O)[O-])ccc2Cl)cc1 | > 12.3 | 1.91 | –
33 | [N-]=[N+]=Nc1c(Cc2ccccc2)c(=O)oc2ccccc12 | > 200 | 32.4 | –
34 | COc1ccc(CC2NCCc3cc(OC)c(OC)cc32)cc1 (configuration not stated) | > 794 | 138 | –
35 | Cc1cc(C)nc(NS(=O)(=O)c2ccc(Nc3c4ccccc4nc4ncccc34)cc2)n1 | – | – | inactive
36 | O=C1c2ccccc2C(=O)N1n1c(Cc2ccc(Cl)cc2)n[nH]c1=O | > 200 | > 200 | –
37 | C#CC1(O)c2ccccc2C(=O)c2ccccc21 | – | – | inactive
38 | COC(=O)/C=C/c1cc(=O)n2c(nc3ccccc32)s1 | > 200 | > 200 | –
39 | CCSCCCCCCCCCCC(=O)OCC1OC(n2cc(C)c(=O)[nH]c2=O)CC1F (configuration not stated) | 0.0132 | 0.2 | –
40 | CC1=C2CN(C(=O)OCC(C)C)CCC2C2=C(C(=O)c3ccccc3C2=O)C1C (configuration not stated) | > 100 | > 100 | –
41 | Cc1ccc(Nc2nc(C)c(C(=O)CC(=O)C(=O)Nc3ccc(Cl)cc3)s2)cc1 | > 200 | > 200 | –
42 | CC1=Nc2cc(C)c(C)cc2NC(=O)C1 | > 200 | > 200 | –
43 | CC(Oc1ccccc1)C(=O)NNC(=O)OC(C)(C)C (configuration not stated) | > 200 | > 200 | –
44 | CNC(=O)CCNC(=O)CCC(=O)OC | > 200 | > 200 | –

Row | Structure (SMILES) | EC50 [µM] | IC50 [µM] | outcome
45 | N=c1ccn2c(n1)OC1C(O)C(CCl)OC12 (configuration not stated) | > 200 | 0.145 | –
46 | CCn1c(N)c(N=O)c(=O)n(C)c1=O | > 200 | > 200 | –
47 | CCN1CCC(O)(/C=C/c2ccc(OC)cc2)C(C(=O)/C=C/c2ccc(OC)cc2)C1 (configuration not stated) | > 479 | > 479 | –
48 | O=C1/C(=C\c2ccccn2)c2ccccc2N1Cc1ccccc1 | > 22.9 | 12.6 | –
49 | C[C@]12CCC3[C@@H](CCC4(C=N)CC(=O)CC[C@]34C)C1CC[C@@H]2O (some centres not stated) | – | – | inactive
50 | O=C(O)[C@@H]1CSC(c2ccc(C(F)(F)F)cc2)N1 (some centres not stated) | > 200 | > 200 | –
51 | CCOP(=O)(O)C(Nc1ccc(N=Nc2ccccc2)cc1)c1cccc(C(Nc2ccc(N=Nc3ccccc3)cc2)P(=O)(O)OCC)c1 (configuration not stated) | > 200 | 35.5 | –
52 | COC(=O)c1ncc2c(=O)[nH]c3ccccc3c2c1C(=O)OC | > 16.6 | > 16.6 | –
53 | C=C1C(=O)OC2/C=C(\COC(C)=O)CCC(OC(C)=O)C3=CC(OC3=O)C12 (configuration not stated) | > 36.3 | 7.24 | –
54 | CC1(C)C=[N+]([O-])C(C)(C)N1O | > 200 | > 200 | –
55 | COc1cccc(NC(=S)/C(=C(/[O-])c2ccc([N+](=O)[O-])cc2)[n+]2ccccc2)c1 | > 200 | > 200 | –
56 | Cn1cc(NC(=O)c2cc(NC(=O)c3cc(NC(=O)/C=C/C(=O)O)cn3C)cn2C)cc1C(=O)NCCC(=N)N | > 100 | 89.1 | –
57 | O=C1OC(=Nc2ccccc2Cl)c2ccccc21 | > 200 | > 200 | –
58 | Cc1ccc([N+](=O)[O-])cc1NC(=O)N1CCCCC1C (configuration not stated) | > 200 | > 100 | –
59 | CS(=O)(=O)O/N=c1/cc(-c2ccccc2)oc2ccccc12 | > 200 | > 200 | –
60 | COC/N=C(\NC#N)NCOC | > 525 | > 525 | –
61 | NC(=S)N/N=C1\CCCC\C1=N/NC(N)=S | > 200 | 17.8 | –
62 | COc1cc2c(cc1OC)NCc1ccccc1NCc1cc(OC)c(OC)cc1NCc1ccccc1NC2 | > 200 | 107 | –
63 | Cc1cn(C2CCN(c3ccccc3)O2)c(=O)[nH]c1=O (configuration not stated) | > 200 | > 200 | –
64 | C(#CCN1CCCC1)CCCN1CCCC1 | > 200 | > 200 | –
